We go through nine molecules from patent US20260007601A1, “IONIZABLE CATIONIC LIPID COMPOUND AND COMPOSITION FOR DELIVERING NUCLEIC ACID AND USE THEREOF” (BEIJING YOUCAREKECHUANG PHARMACEUTICAL TECHNOLOGY CO., LTD., priority 2023, published 2026).

Series [1] is described as follows: Particle size and polydispersity index (PDI) of nanolipid particles, dynamic light scattering. The following applies: LNP formulation prepared from the named cationic lipid, 25° C. The format is physicochemical. How it is done:
The particle size and polydispersity index (PDI) were determined by dynamic light scattering method using a Malvern laser particle size analyzer. 10 μL of liposome solution was diluted to 1 mL with RNase-free deionized water and added to a sample pool. Each sample was measured three times. The measurement conditions were: 90° scattering angle, 25° C.

Series [2] concerns 293T cells. As to the kind of experiment: Cell survival rate assay (CCK-8). The format is cell-based. Particulars: LNP containing 1.5 μg Fluc-mRNA, 24 hours, CCK-8. On the procedure:
(§1) Cell recovery and passaging: 293T cells were recovered and cultured in culture dishes to the required cell number.
(§2) Plating: The cells in the culture dish were digested, counted, plated in a 96-well plate at 10,000 cells per well, or in a 12-well plate at 150,000 cells per well, and cultured overnight until the cells adhered to the wall.
(§3) Cell recovery and passage: The method was the same as in Example 3.
(§4) Plating: The method was the same as Example 3.
The LNP formulations containing 1.5 μg Fluc-mRNA (prepared according to Example 4, the LNP formulation carrier components are cationic lipids, neutral lipids, structured lipids and polymer-conjugated lipids at a molar ratio of 49:10:39.5:1.5, wherein the cationic lipids are the cationic lipids listed in Table 1) and the Lipofectamine 3000 formulation were added to the cell culture medium of the 96-well plate, and the culture was continued for 24 hours. Then, 10 μL of CCK-8 solution was added to each well, and the culture plate was incubated in the incubator for 1 hour, and the absorbance at 450 nm was measured by a microplate reader.

Series [3] can be described thus: Encapsulation rate, drug loading concentration and total RNA concentration detection (RiboGreen). Particulars: LNP formulation of the named lipid. Type of series: physicochemical. From the text: Encapsulation rate is a key quality attribute of liposomes. It refers to the percentage of drug content encapsulated in the lipid bilayer to the total amount of drug added, which can reflect the degree of drug encapsulation in liposomes. The Chinese Pharmacopoeia stipulates that the encapsulation rate should usually not be less than 80%.
The drug loading capacity is the ratio of the amount of drug in the liposome to the total amount of drug and carrier in the liposome. The drug loading capacity directly affects the clinical application dose of the drug, so the larger the drug loading capacity, the more it can meet clinical needs. The drug loading concentration is proportional to the drug loading capacity, and the relative proportion of the drug loading concentration can represent the relative proportion of the drug loading capacity. The relative proportion of the total RNA concentration can represent the relative proportion of the amount of mRNA carried by the LNP formulation.
1×TE buffer, 0.1% Triton X-100 buffer, and RiboGreen reagent (1:200) and mRNA standard stock solution were prepared.
An appropriate amount of sample was taken and added to an appropriate amount of 1×TE buffer, which was diluted to a solution containing about 2.8 μg of the test sample per 1 mL. Then the sample was added to a 96-well plate, where 50 μL of the diluted test sample or mRNA standard stock solution was added to each well, and then added with 1×TE buffer and 0.1% Triton X-100 buffer. The samples were incubated at 37° C. for 10 minutes, and 100 μL of RiboGreen reagent (1:200) was added to each well of the 96-well plate. The plate was centrifuged, and read using an ELISA reader, and the data was processed.

The test system of series [4] is 293T cells. As to the kind of experiment: Fluorescence detection of Fluc-mRNA (cell transfection efficiency of LNP formulations). The following applies: for Relative light unit (RLU): LNP containing 0.3 μg Fluc-mRNA, 24 hours; for Multiples of values that equivalent to YK-201: RLU of YK-201 / RLU of the named lipid; for Multiples of values that equivalent to YK-202: RLU of YK-202 / RLU of the named lipid; for Multiples of values that equivalent to YK-209: RLU of YK-209 / RLU of the named lipid; for Ratio relative to SM-102: RLU of the named lipid / RLU of SM-102, times that of SM-102. The format is cell-based. On the procedure:
as §1, §2, §3, §4
The LNP formulation containing 0.3 μg Fluc-mRNA (prepared according to Example 4, the LNP formulation carrier components were cationic lipids, neutral lipids, structured lipids and polymer-conjugated lipids at a molar ratio of 49:10:39.5:1.5, and the cationic lipids were cationic lipids listed in Table 1) was added to the cell culture medium of a 96-well plate, and cultured for 24 hours. After that, the corresponding reagents were added according to the instructions of the Gaussia Luciferase Assay Kit, and the fluorescence expression intensity of each well was detected by the IVIS fluorescence detection system. This experiment verified the transfection efficiency of the LNP formulation in the cell, and the specific detection results are shown in Tables 6-9.

For a further series, the system named is female BALB/C mice. The series is described as follows: Mouse in vivo imaging of Fluc-mRNA LNP formulations. More on the design: average radiation intensity (mRNA expression): unit not given here. The following applies: 10 μg Fluc-mRNA LNP intramuscularly. How it is done:
The LNP formulation containing 10 μg Fluc-mRNA (prepared according to Example 4) was injected intramuscularly into female BALB/C mice aged 4 to 6 weeks and weighing 17 to 19 g, and the mice were intraperitoneally injected with fluorescent imaging substrates at specific time points (6 h, 24 h, 48 h and 7 d) after administration. The mice moved freely for 5 minutes, and then the average radiation intensity (corresponding to the fluorescence expression intensity) of the protein expressed by the mRNA carried by the LNP in the mice was detected by IVIS Spectrum small animal in vivo imager. The test results are shown in Tables 14 to 17 and FIGS. 12 to 14.

In series [1], `CCCCCCCCC(CCCCCCCC)OC(=O)CCCCCN(CCCCCC(=O)OC(CCCCCCCC)CCCCCCCC)CCN(C)CCNC` [YK-224] gave a PDI of 30.3% and a Particle size of 185 nm. Further, in the series on 293T cells [2], the Cell survival rate was determined as 23.47%. In series [3], the Drug loading concentration was 38.81 µg/mL, the Encapsulation rate came out at 98.7% and the “Total RNA concentration” value was 39.31 µg/mL. For the same molecule, in the series with 293T cells [4], the “Relative light unit (RLU)” value was 88020 RLU, the “Multiples of values that equivalent to YK-201” value (from here on “Multiples … to YK-201”) stood at 323.59, the “Multiples of values that equivalent to YK-202” value (“Multiples … to YK-202” below) stood at 340.35 and the “Multiples of values that equivalent to YK-209” value (shortened to “Multiples … to YK-209”) is recorded as 239.25. Besides, the “Ratio relative to SM-102” value in the series on 293T cells [4] worked out at 0.05.

In series [1], `CCCCCCCCC(CCCCCCCC)OC(=O)CCCCCN(CCCCCC(=O)OC(CCCCCCCC)CCCCCCCC)CCN(CCO)CCO` [YK-213, bis(heptadecan-9-yl)-6,6-((2-(bis(2-hydroxyethyl)amino)ethyl)azadialkyl)dihexanoate] registered a PDI of 17.6% and a Particle size of 207 nm. The same molecule gave a Cell survival rate in the series with 293T cells [2] of 41.44%. Further, in series [3], the Drug loading concentration was determined as 34.70 µg/mL, the Encapsulation rate is recorded as 82.0% and the “Total RNA concentration” value came out at 42.34 µg/mL. Moreover, in the series on 293T cells [4], the “Relative light unit (RLU)” value was 1364505 RLU, the “Multiples … to YK-201” value is given as 20.87, the “Multiples … to YK-202” value was 21.95 and the “Multiples … to YK-209” value worked out at 15.43. In addition, the “Ratio relative to SM-102” value in the series with 293T cells [4] stood at 0.82.

In series [1], `CCCCCCCCCCCOC(=O)CCCCCN(CCCCCCCC(=O)OCCC(CCCCCC)CCCCCC)CCN(C)CCO` [YK-203] showed a PDI of 23.7% and a Particle size of 235 nm. Also, in the series on 293T cells [2], the Cell survival rate was determined as 35.56%. Moreover, in series [3], the Drug loading concentration is 38.38 µg/mL, the Encapsulation rate worked out at 91.0% and the “Total RNA concentration” value turned out to be 42.19 µg/mL. Besides, in the series with 293T cells [4], the “Relative light unit (RLU)” value came out at 3869614 RLU, the “Multiples … to YK-201” value is 7.36, the “Multiples … to YK-202” value came out at 7.74 and the “Multiples … to YK-209” value is reported as 5.44. For the same molecule, the “Ratio relative to SM-102” value in the series with 293T cells [4] was found to be 2.32.

As for `CCCCCCC(CCCCCC)CCOC(=O)CCCCCN(CCCCCC(=O)OCCC(CCCCCC)CCCCCC)CCN(C)CCNC` [YK-225], in series [1], the PDI is listed as 19.3% and the Particle size is 222 nm. The Cell survival rate in the series with 293T cells [2] is recorded as 43.41%. In series [3], the Drug loading concentration stood at 38.74 µg/mL, the Encapsulation rate stood at 98.0% and the “Total RNA concentration” value was 39.53 µg/mL. Further, in the series on 293T cells [4], the “Relative light unit (RLU)” value is 26145 RLU, the “Multiples … to YK-201” value stood at 1089.41, the “Multiples … to YK-202” value is 1145.82 and the “Multiples … to YK-209” value is 805.46. In the series on 293T cells [4], the “Ratio relative to SM-102” value turned out to be 0.02.

For the molecule `CCCCCCCCC(CCCCCCCC)OC(=O)CCCCCN(CCCCCC(=O)OC(CCCCCCCC)CCCCCCCC)CCN(C)CCO` [YK-210, bis(heptadecan-9-yl)-6,6′-((2-(2-hydroxyethyl(methyl)amino)ethyl)azadialkyl)dihexanoate], in series [1], the PDI was 22.9% and the Particle size came to 224 nm. In the series on 293T cells [2], the Cell survival rate was 38.38%. In series [3], the Drug loading concentration came to 36.50 µg/mL, the Encapsulation rate is 85.6% and the “Total RNA concentration” value was 42.62 µg/mL. In the series with 293T cells [4], the “Relative light unit (RLU)” value was 4628355 RLU, the “Multiples … to YK-201” value was found to be 6.15, the “Multiples … to YK-202” value is reported as 6.47 and the “Multiples … to YK-209” value is on record as 4.55. Besides, in the series on 293T cells [4], the “Ratio relative to SM-102” value is 2.78.

Consider `CCCCCCCCCCOC(=O)CCCN(CCCCCC(=O)OCC(CCCCCCCC)CCCCCCCC)CCN(C)CCNC` [YK-221], for which, in series [1], the PDI was determined as 21.9% and the Particle size amounted to 237 nm. The molecule also gave a Cell survival rate in the series with 293T cells [2] of 20.95%. Moreover, in series [3], the Drug loading concentration was 31.46 µg/mL, the Encapsulation rate amounted to 95.4% and the “Total RNA concentration” value was found to be 32.98 µg/mL. In addition, in the series on 293T cells [4], the “Relative light unit (RLU)” value is reported as 27960 RLU, the “Multiples … to YK-201” value is listed as 1018.69, the “Multiples … to YK-202” value worked out at 1071.44 and the “Multiples … to YK-209” value was 753.17. Also, the “Ratio relative to SM-102” value with 293T cells [4] is reported as 0.02.

Regarding `CCCCCCCCCCOC(=O)CCCN(CCCCCC(=O)OCCC(CCCCCC)CCCCCC)C(=O)SCCCN(C)C` [YK-220], in series [1], the PDI was 26.6% and the Particle size amounted to 221 nm. The molecule further had a Cell survival rate with 293T cells [2] of 58.99%. For the same molecule, in series [3], the Drug loading concentration amounted to 25.27 µg/mL, the Encapsulation rate stood at 57.5% and the “Total RNA concentration” value was determined as 43.92 µg/mL. In addition, in the series with 293T cells [4], the “Relative light unit (RLU)” value worked out at 216398 RLU, the “Multiples … to YK-201” value is given as 131.62, the “Multiples … to YK-202” value is reported as 138.44 and the “Multiples … to YK-209” value was 97.32. Besides, the “Ratio relative to SM-102” value in the series on 293T cells [4] is reported as 0.13.

In turn, `CCCCCCCCC(CCCCCCCC)OC(=O)CCCCCCCN(CCO)CCCCCCCC(=O)OCCC(CCCCCC)CCCCCC` [Compound 21, 9-heptadecyl-8-(8-((3-hexylnonyl)oxy)-8-oxooctyl)-((2-hydroxyethyl)amino)octanoate, reference compound] came in with a Cell survival rate in the series with 293T cells [2] of 69.02%. For the same molecule, the “average radiation intensity (mRNA expression)” value (from here on “average radiation intensity”) in the series on female BALB/C mice (6 h) was found to be 600390. For the same molecule, the “average radiation intensity” value in the series on female BALB/C mice (24 h) is listed as 108000. The “average radiation intensity” value with female BALB/C mice (48 h) was 30025. In addition, the “average radiation intensity” value in the series with female BALB/C mice (7 d) was found to be 6102. Besides, in the series with 293T cells [4], the “Relative light unit (RLU)” value is 1421028 RLU, the “Multiples … to YK-201” value is 20.04, the “Multiples … to YK-202” value stood at 21.08 and the “Ratio relative to SM-102” value worked out at 0.85.

For `CCCCCCCCCCCOC(=O)CCCCCN(CCCCC(=O)OCC(CCCCCCCC)CCCCCCCC)CCNCC` [YK-226], in the series on 293T cells [2], the Cell survival rate turned out to be 27.90%. Also, in the series with 293T cells [4], the “Relative light unit (RLU)” value was 57660 RLU, the “Multiples … to YK-201” value is on record as 493.98, the “Multiples … to YK-202” value came out at 519.55 and the “Multiples … to YK-209” value is 365.22. Further, the “Ratio relative to SM-102” value with 293T cells [4] came to 0.03.
